pIC50: −log10 of the molar value.
How the values were obtained:
HeLaS3 cells = test: Growth Inhibitory Test on HeLaS3 Cells; assay type: cell-based; conditions: Homo sapiens, HeLa S3, 72 hours incubation, cell counts
Description: Cytotoxic activity of the compound of the present invention based on the properties described hereinbefore was examined. Cytotoxic activities of PyPyLDu86 and ImPyLDu86 of the present invention and known anticancer agent duocarmycin on HeLaS3 cells (uterocervical squamous cell carcinoma cells) were tested.
Suspension 0.75 ml of HeLaS3 cells, 2.67×10^4 cells/ml, in MEM medium containing 10% fetal bovine serum and 2 mM glutamine, was dispensed into each well in 24 cell culture plate. After incubation in the CO2-incubator at 37° C. for overnight, 0.25 ml portions of each test compound shown in Table 1, which was appropriately diluted with medium, was added into each well.
After cells were incubated for 72 hours in the CO2-incubator, the culture supernatant was removed, and cells were dispersed using trypsin-ethylenediaminetetraacetic acid (EDTA) and collected. Cell counts were counted by cell counter, and cell counts without treatment and cell counts treated with known concentration of test compound were compared to calculate the concentration of test compound which inhibits 50% of cell growth (IC50).

[1] = system: 5′-end texas red-modified 450 bp DNA fragments pUC18 F780*-1229 and pUC18 R1459*-1908; test: Alkylation of 450 bp DNA fragments (thermally induced strand cleavage, high-resolution gel electrophoresis); assay type: biochemical
Description: Reactivities of the thus synthesized PyPyLDu86 and ImPyLDu86 with DNA were investigated.
The left electrophoresis pattern is a result of the upper strand of the double-strand DNA, and the right electrophoresis pattern is a result of the lower strand of the double-strand DNA. […] No compounds have been known to occur such the cleavage, and in this sense, the compound of the present invention can be said as an artificial restriction enzyme.
(1) Preparation of 5′-texas red-end-modified 450 bp DNA fragment
The 5′-end texas red-modified 450 bp DNA fragments pUC18 F780*-1229 and pUC18 R1459*-1908 (these are complementary) were prepared by the PCR method using 5′-end texas red-modified 18mers as primers and purified by filtration using Suprec-02. The concentration was determined by ethidium bromide staining. The asterisk (*) indicates texas red modification site, and numerals indicates nucleotide numbering from the replication origin.
(2) High-resolution gel electrophoresis
A standard reaction mixture containing 5′-end texas red-labeled DNA fragment 60 nM, DMF 5% (v/v) and various concentrations of drugs in total 10 μl of sodium phosphate buffer (pH 7.0) 12.5 mM was added into microcentrifugal tube (Eppendorf tube) and allowed to stand at room temperature for overnight. Calf thymus DNA (5 mM, 1 μl) was added thereto and heated at 90° C. for 5 minutes. DNA was collected by ethanol precipitation. […]

| Compound | pIC50 (HeLaS3 cells) | efficiency of cleavage ([1]; double-strand DNA cleavage, calculated by an amount of used ImPyLDu86) | cleavage of the double-strand DNA (sites) ([1]; upper and lower strand, thermally induced strand cleavage, from the lower concentration) |
| --- | --- | --- | --- |
| COC(=O)c1c(C)[nH]c2c1C13CC1CN(C(=O)/C=C/c1cc(NC(=O)c4cc(NC(C)=O)cn4C)cn1C)C3=CC2=O (centres unmarked) [PyPyLDu86] | 8.82 | – | – |
| COC(=O)c1cc2c([nH]1)C(=O)C=C1N(C(=O)c3cc4cc(OC)c(OC)c(OC)c4[nH]3)C[C@H]3C[C@]123 [Duocaraycin, duocarmycin, reference compound] | 8.33 | – | – |
| COC(=O)c1c(C)[nH]c2c1C13CC1CN(C(=O)/C=C/c1cc(NC(=O)c4nc(NC(C)=O)cn4C)cn1C)C3=CC2=O (centres unmarked) [ImPyLDu86] | 9.15 | ~70% | mainly cleaved at the site 1 and the site 2 of the two strands |

— patent publication US6713633B1, “Compounds capable of cleaving double-stranded DNA and method of utilization of the same” (Japan Science and Technology Corporation, priority 1999, dated 2004)
